Measurements reported in ChEMBL document CHEMBL1129163, “Nucleosides and nucleotides. 155. synthesis, antitumor effects, and possible enzymatic activation mechanism of 5-phosphatidyl-2-deoxy-2-methylenecytidine (DMDC)” (1996).

Key:
Mus musculus [1] = test: Compound was evaluated for the antitumor activity against i.p.-implanted M5076 sarcoma by measuring 60 day survivor in four mice at a dose of 0.40 mM/kg/day given orally on days 1-5.; format: functional
Mus musculus [2] = test: Compound was evaluated for the antitumor activity against i.p.-implanted M5076 sarcoma in mice for a dose of 0.40 mM/kg/day given intraperitoneally on days 1-5.; format: functional
Mus musculus [3] = test: Compound was evaluated for the antitumor activity against i.p.-implanted L1210 leukemia in mice for a dose of 0.125 mM/kg/day given orally on days 1-5.; format: functional
Mus musculus [4] = test: Compound was evaluated for the antitumor activity against i.p.-implanted M5076 sarcoma by measuring 60 day survivor in four mice a dose of 0.125 mM/kg/day given orally on days 1-5.; format: functional
Mus musculus [5] = test: Compound was evaluated for the antitumor activity against i.p.-implanted M5076 sarcoma in mice for a dose of 0.125 mM/kg/day on days 1-5.; format: functional
Mus musculus [6] = test: Compound was evaluated for the antitumor activity against i.p.-implanted M5076 sarcoma in four mice for a dose of 0.40 mM/kg/day given intraperitoneally on days 1-5; Toxic; format: functional, organism-based
Mus musculus [7] = test: Compound was evaluated for the antitumor activity against i.p.-implanted M5076 sarcoma by measuring 60 day survivor in four mice a dose of 0.40 mM/kg/day given orally on days 1-5.; format: functional

Compound | Survivors (Mus musculus [1]) | ILS (Mus musculus [2]) [%] | ILS (Mus musculus [3]) [%] | Survivors (Mus musculus [4]) | ILS (Mus musculus [5]) [%] | ILS (Mus musculus [6]) | Survivors (Mus musculus [7])
C=C1[C@H](n2ccc(N)nc2=O)O[C@H](COP(=O)([O-])OC[C@@H](COC(=O)CCCCCCCCCCCCCCC)OC(=O)CCCCCCCCCCCCCCC)[C@H]1O.[Na+] | 4 | >179 | 64 | 1 | 121 |  | 
C=C1[C@H](n2cc(F)c(N)nc2=O)O[C@H](COP(=O)([O-])OC[C@H](COC(=O)CCCCCCCCCCCCCCC)OC(=O)CCCCCCCCCCCCCCC)[C@H]1O.[Na+] |  |  | 96 | 3 | >179 | Toxic | 
C=C1C(n2ccc(N)nc2=O)O[C@H](CO)[C@@H]1O (some centres undefined) |  | 116 | 68 | 0 | 44 |  | 0
